Experimental findings from the NIST ThermoML archive (doi:10.1021/je301347v) are described below.

The conditions of the series: 101 kPa, Liquid, Voltage change across transformer (no electrode).

Numbers after ± are expanded uncertainties.

As for `CCCC[n+]1cccc(C)c1.F[B-](F)(F)F` [1-butyl-3-methylpyridinium tetrafluoroborate], the electrical conductivity is, setting by setting: (293.15 K) 0.155 ± 0.0016 S/m; (303.15 K) 0.281 ± 0.003 S/m; (313.15 K) 0.461 ± 0.005 S/m; (323.15 K) 0.704 ± 0.007 S/m.
For the molecule `CCCC[n+]1ccc(C)cc1.F[B-](F)(F)F` [1-butyl-4-methylpyridinium tetrafluoroborate], the electrical conductivity (293.15 K) is 0.1318 ± 0.0013 S/m, the electrical conductivity (303.15 K) was found to be 0.254 ± 0.003 S/m, the electrical conductivity (313.15 K) came to 0.439 ± 0.004 S/m and the electrical conductivity (323.15 K) came out at 0.687 ± 0.007 S/m.
The like results for `CCCC[n+]1ccccc1.F[B-](F)(F)F` [1-butylpyridinium tetrafluoroborate] were, in that order, 0.181 ± 0.0036 S/m, 0.321 ± 0.006 S/m, 0.519 ± 0.01 S/m and 0.785 ± 0.016 S/m.
